What was measured:
clinical = conditions: human
[1] = cited from earlier work
[2] = cited from earlier work; remark: listed apart in the source

## CCC(CC)O[C@@H]1C=C(C(=O)O)C[C@H](N)[C@H]1NC(C)=O [Oseltamivir carboxylate, oseltamivir carboxylate]
All subjects, no-effect boundary 80%–125%
  AUC0-∞,ss, geometric mean ratio co-administration/monotherapy: 87.1%
human, in vivo
  AUC0-t,ss, geometric mean ratio co-administration/monotherapy: 86.7%
  AUC0-τ,ss, geometric mean ratio co-administration/monotherapy: 83.3%
  AUC0-∞,ss, intra-individual coefficient of variation: 8.4%
  Cmax,ss, geometric mean ratio co-administration/monotherapy: 80.4%
clinical; in vivo, AUC0-t,ss, geometric mean
  AUC(0-t): 5080 ng·h/mL
clinical; in vivo, AUC0-τ,ss, geometric mean
  AUC: 3320 ng·h/mL
clinical; in vivo, AUC0-∞,ss, geometric mean
  AUC(0-inf): 5170 ng·h/mL
clinical; in vivo, Cmax,ss, geometric mean
  Cmax: 393 ng/mL
clinical; in vivo, po, Tmax,ss
  Tmax: 4 h
clinical; in vivo, po, t1/2,ss
  half-life: 10.3 ± 1.6 h
clinical; plasma, po, 75 mg
  k el: 1.92e-05 s⁻¹
[1]
  plasma protein binding rate: approximately 3%
[2]
  fraction excreted by the kidneys: more than 99%

From PMC11963566, “A phase I, single-center, randomized, open-label, three-period crossover study to evaluate the drug–drug interaction between ZSP1273 and oseltamivir in healthy Chinese subjects” (Antimicrobial Agents and Chemotherapy, 2025)
